Data taken from paper PMC8333425, “Discovery of a dual Ras and ARF6 inhibitor from a GPCR endocytosis screen” (Nature Communications, 2021).
“And” between values parts separate entries of the source, which are not always exact repeats. Equal entries are not always repeated.

What was measured:
ARF = target: T1, ARF (Homo sapiens, UniProt P62330); assay: ARF BRET sensor (GGA3-PBD-RlucII / rGFP-CAAX), AT1R-mediated; type: cell-based; settings: for AngII-promoted BRET, AT1R-mediated ARF activation: individual experiments
T1 construct: endogenous in cells; host or cells: HEK293SL
Procedure: HEK293 cells were transfected with a BRET sensor that monitors the interaction between β-arrestins and the β-appendage of AP-2 (Fig. 2a)[26],[33]. […] The small GTPase ARF6, which binds β-arrestins and facilitates AP-2 and clathrin recruitment at the PM, is also necessary for CCPs initiation and receptor internalization. Therefore, ARF6 activity was assessed using the protein-3 binding domain (PBD) of the golgi-associated, gamma adaptin ear-containing, ARF-binding protein 3 (GGA3) fused to GST (GST-GGA3-PBD) in a pull-down assay, which allows the detection of GTP-bound ARF6 in cells[34] (Fig. 2b). […] This inhibition was selective for ARF6 since 21 had no effect on AT1R-dependent ARF1 activation (Supplementary Fig. 2a). We also devised a BRET assay to quantitatively assess 21’s action on ARF activity. The ARF BRET assay was created using the GGA3-PBD fused to RlucII (GGA3-PBD-RlucII) and the rGFP anchored at the PM (rGFP-CAAX) (Supplementary Fig. 3a). […] 21 blocked ARF’s activation by 40–60% following AT1R stimulation (Fig. 2c).
HEK293SL cells were seeded at a density of 7.5 × 10^5 cells per 100-mm dish and 24 h later, transiently transfected as such. For receptor internalization experiments, cells were transfected with 0.12 μg AT1R-RlucII, B2R-RlucII, or β2AR-RlucII and 0.48 μg of either rGFP-CAAX (to assess removal from the PM) or rGFP-FYVE (to assess accumulation in the endosomes). For β-arrestin recruitment assays, cells were transfected with 0.48 μg of receptor-YFP along with 0.12 μg of β-arrestin-RlucII. For β-arrestin/AP-2 binding experiments, cells were transfected with 1 μg Flag-AT1R, 1 μg β2-Adaptin-YFP, and 0.12 μg β-arrestin2-RlucII. For G protein activation, cells were transfected with 3 μg of sp-Flag-AT1R along with either 4.5 μg of the Gαq-polycistronic BRET sensor or 0.24 μg of the Gαi3-RlucII and 0.6 μg of GFP10-Gγ2 and Gβ1 sensors or 0.12 μg PKN-RBD-RlucII and 0.48 μg of rGFP-CAAX. For PKC activation, cells were transfected with 3 μg of sp-Flag-AT1R and 0.18 μg of the PKC sensor. For GTPase activation experiments, cells were transfected with 1 μg Flag-AT1R, 0.48 μg of rGFP-CAAX, and either 0.12 μg of GGA3-PBD-RlucII, PAK-CRIB-RlucII or Raf-RBD-RlucII. For biosensor validation experiments, cells were additionally transfected with 500 ng Flag-K-Ras-WT, Flag-K-Ras-G12V, Flag-K-Ras-SOS-CAAX, HA-ARF6-WT, HA-ARF6-T27N, Myc-Rac1-WT, Myc-Rac1-Q61L or Myc-Rac1-T17N. For PI3K/Akt activation experiments, cells were transfected with 0.48 μg of rGFP-CAAX and 0.12 μg of Akt (PH)-RlucII. After 18 h of transfection, the media was replaced and cells were divided for subsequent experiments. Cells were detached and seeded onto poly-L-ornithine-coated 96-well flat white bottom plates (BrandTech Scientific) at a density of 2.5 × 10^4 cells per well in media. The next day, cells were washed once with Tyrode’s buffer (140 mM NaCl, 2.7 mM KCl, 1 mM CaCl2, 12 mM NaHCO3, 5.6 mM D-glucose, 0.5 mM MgCl2, 0.37 mM NaH2PO4, 25 mM HEPES, pH 7.4) and left in Tyrode’s buffer. For kinetics of β-arrestin recruitment or β-arrestin binding to receptor and AP-2 experiments, cells were serum starved for 30 min, pretreated with 21 (50 µM) or Barbadin (100 µM) for 30 min, stimulated with 100 nM AngII or 1 µM BK and BRET signals were monitored at indicated times using a Victor X Light plate reader (PerkinElmer). Coelenterazine H (final concentration of 5 µM) was added 3–5 min prior to BRET measurements. Filter set was 460/80 nm and 535/30 nm for detecting the RlucII Renilla luciferase (donor) and YFP (acceptor) light emissions, respectively. The BRET ratio was determined by calculating the ratio of the light emitted by YFP over the light emitted by the RlucII. For G protein activation, cells were serum starved, pretreated with compounds for 30 min, stimulated with 100 nM AngII for 2 min (Gαq, Gαi3, and Rho sensors) or 5 min (PKC sensor). […]

EGFR = assay: BRET concentration-response, EGFR of Fig1d source data; type: cell-based, human

T1 sequence (P62330 2-175): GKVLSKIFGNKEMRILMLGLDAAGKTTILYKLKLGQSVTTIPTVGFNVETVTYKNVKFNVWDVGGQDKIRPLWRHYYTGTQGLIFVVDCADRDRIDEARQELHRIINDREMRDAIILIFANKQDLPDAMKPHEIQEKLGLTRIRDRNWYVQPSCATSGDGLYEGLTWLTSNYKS

In the case of `CC(C)C(=O)N1CCN(c2ccc(NC(=O)c3cc4ccccc4o3)cc2Cl)CC1` [Compound 21], the “block of ARF activation following AT1R stimulation (BRET)” value (ARF; 50 μM) is reported as 40–60%, the IC50 (ARF; AT1R, dose-response) is reported as 7 µM and the “AngII-promoted BRET, AT1R-mediated ARF activation” value (from here on “AngII-promoted BRET”) (ARF; Comp 21 50 μM, time 0 min) is reported as 0. The “AngII-promoted BRET” value (ARF; Comp 21 50 μM, time 2 min) was 0.01817 and 0.0425 and 0.0675, the “AngII-promoted BRET” value (ARF; Comp 21 50 μM, time 5 min) was 0.04183 and 0.1107 and 0.06017 and 0.076 and the “AngII-promoted BRET” value (ARF; Comp 21 50 μM, time 10 min) was 0.04033 and 0.11 and 0.06283 and 0.0785. For the same compound, the “AngII-promoted BRET” value (ARF; Comp 21 (50 μM), time 1 min) was 0.04233 and 0.01117 and 0.065, the “Arf6 MEAN (Fig.4d)” value (ARF; Log [Comp 21] (M) -4) was 20.8744 and the “Arf6 MEAN (Fig.4d)” value (ARF; Log [Comp21] (M) -4.3) was 30.1774. The “Arf6 MEAN (Fig.4d)” value (ARF; Log [Comp21] (M) -5) was 40.2199, the “Arf6 MEAN (Fig.4d)” value (ARF; Log [Comp21] (M) -5.3) was 84.9863 and the “Arf6 MEAN (Fig.4d)” value (ARF; Log [Comp 21] (M) -6) was 88.0739. The “Arf6 MEAN (Fig.4d)” value (ARF; Log [Comp21] (M) -6.3) was 99.6353, the “Arf6 MEAN (Fig.4d)” value (ARF; Log [Comp 21] (M) -7) was 93.4599 and the “EGFR, ligand-promoted BRET (Mean)” value (EGFR; Log [Comp21] (M) -4.3) was 103.469 percent compared to DMSO. The “EGFR, ligand-promoted BRET (Mean)” value (EGFR; Log [Comp21] (M) -4.6) was 97.8054 percent compared to DMSO, the “EGFR, ligand-promoted BRET (Mean)” value (EGFR; Log [Comp21] (M) -5) was 87.6772 percent compared to DMSO and the “EGFR, ligand-promoted BRET (Mean)” value (EGFR; Log [Comp21] (M) -5.3) was 105.328 percent compared to DMSO. The “EGFR, ligand-promoted BRET (Mean)” value (EGFR; Log [Comp 21] (M) -6) was 96.2669 percent compared to DMSO, the “EGFR, ligand-promoted BRET (Mean)” value (EGFR; Log [Comp21] (M) -6.3) was 100.826 percent compared to DMSO and the “EGFR, ligand-promoted BRET (Mean)” value (EGFR; Log [Comp 21] (M) -7) was 105.279 percent compared to DMSO.
